# From patent publication US11510962B2, “Manufacture of degarelix” (Ferring B.V., priority 2012, dated 2022)
# Square brackets hold non-standard residues; d marks the D form. Peptide text beside a SMILES is read from it. * marks the point of attachment. dPhe(4-NHCONH2) = NC(=O)Nc1ccc(C[C@@H](N)C(=O)O)cc1; Dihydroorotyl(S) = O=C1C[C@@H](C(=O)*)NC(=O)N1; dPhe(4-Cl) = N[C@H](Cc1ccc(Cl)cc1)C(=O)O; Phe(4-NH2) = Nc1ccc(C[C@H](N)C(=O)O)cc1; d2Nal = N[C@H](Cc1ccc2ccccc2c1)C(=O)O; Lys(iPr) = CC(C)NCCCC[C@H](N)C(=O)O; d3Pal = N[C@H](Cc1cccnc1)C(=O)O
# Legend:
# [1] = molecular target: GnRH receptors in the pituitary (Homo sapiens, UniProt P30968); conditions: prostate cancer patients; literature; cited from earlier work
# GnRH receptors in the pituitary, sequence (P30968 whole entry): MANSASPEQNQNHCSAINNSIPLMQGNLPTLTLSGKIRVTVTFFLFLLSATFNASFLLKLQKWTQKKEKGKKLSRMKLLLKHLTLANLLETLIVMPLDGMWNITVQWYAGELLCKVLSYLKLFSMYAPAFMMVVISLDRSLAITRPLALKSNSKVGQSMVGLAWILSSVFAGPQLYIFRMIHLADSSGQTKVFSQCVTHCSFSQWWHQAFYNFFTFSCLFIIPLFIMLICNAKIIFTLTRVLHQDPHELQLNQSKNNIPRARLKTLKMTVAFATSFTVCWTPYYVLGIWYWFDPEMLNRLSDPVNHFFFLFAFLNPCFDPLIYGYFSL
# [2] = De-aggregation experiments with acetic acid: final optical density; type: physicochemical
# Protocol: (§1) During the de-aggregation studies the temperature was set to 5, 20, 25, or 35° C. The concentration of degarelix drug substance was 5, 15, 25, or 35 mg/ml. The concentration of acetic acid is 13, 15, 18, 20, 22, 26, 30, 35 or 40%. Optical Density (OD): A sample (1 ml) should be taken at the end of each experiment for measurement of the final optical density. De-aggregation Experiment Protocol, total volume 20 or 69 ml: • 1. Weigh the required amount of stock solution into a beaker. Equilibrate to the desired temperature • 2. Weigh the required amount of acetic acid (100%) into a beaker • 3. Mix the acetic acid (100%) with 3 or 10 ml of milli-Q water and equilibrate to the desired temperature • 4. Mix the degarelix stock solution with the acetic acid/milli-Q water solution • 5. Fill milli-Q water up to 20 or 69 ml • 6. Mix thoroughly • 7. Take samples for viscosity and optical density as described above. Note the appearance of the solution during the experiment
# [3] = De-aggregation experiments with acetic acid: viscosity of degarelix stock solution; type: physicochemical
# Protocol: as §1, with “Determination of the viscosity of the drug substance and drug product solution is based on the current edition of Ph. Eur. and USP procedure using a rotating viscometer equipped with a cone-plate measuring system with D=60 mm and 1°. The shear rate is increased from 0 to 500 s in 20 steps, using a controlled rate (CR) rotation step program at a constant temperature of 20±0.2° C., making certain that the system reaches equilibrium before the viscosity is recorded at a shear rate of 500 s^−1. During” for “During”, “Viscosity: Take out 1.2 ml” for “Optical Density (OD): A sample (1 ml) should be taken”, “T=1, 60, 120, and 240 min.” for “the end of each experiment for measurement of the final optical density.”
# [4] = in vivo
# [5] = Reconstitution of degarelix vials with WFI/surfactant solution: OD (absorbance) at 350 nm; type: physicochemical; conditions: vials reconstituted to 60 mg/ml degarelix, surfactant 1 mg/ml (0.1%) in WFI, 30 min, 60 min, 120 min, 24 hours
# Protocol: Procedure: • Degarelix batch reconstituted using WFI (as control) and using WFI containing the surfactants. The vials are reconstituted to 60 mg/ml degarelix.
# [6] = In-vitro release profile (IVD assay) of degarelix vials reconstituted with WFI+Tween 20; type: physicochemical; conditions: 40 mg/ml degarelix; Tween 20 at 1, 0.5, 0.25 mg/ml; control WFI
# Protocol: Tween 20 concentrations tested:
# 1 mg/ml; 0.5 mg/ml; 0.25 mg/ml;
# [7] = 5 °C, degarelix 5 mg/ml, AcOH 40%
# [8] = 5 °C, degarelix 25 mg/ml, AcOH 13%
# [9] = 5 °C, degarelix 25 mg/ml, AcOH 15%
# [10] = 5 °C, degarelix 25 mg/ml, AcOH 20%
# [11] = 5 °C, degarelix 35 mg/ml, AcOH 26%
# [12] = 20 °C, degarelix 15 mg/ml, AcOH 30%
# [13] = 25 °C, degarelix 25 mg/ml, AcOH 20%
# [14] = 35 °C, degarelix 25 mg/ml, AcOH 15%
# [15] = 35 °C, degarelix 25 mg/ml, AcOH 18%
# [16] = 35 °C, degarelix 25 mg/ml, AcOH 20%
# [17] = 35 °C, degarelix 35 mg/ml, AcOH 22%
# [18] = 35 °C, degarelix 35 mg/ml, AcOH 26%
# [19] = 35 °C, degarelix 35 mg/ml, AcOH 30%
# [20] = 35 °C, degarelix 35 mg/ml, AcOH 35%
compound,measurement,setting,value
"CC(=O)N[C@H](Cc1ccc2ccccc2c1)C(=O)N[C@H](Cc1ccc(Cl)cc1)C(=O)N[C@H](Cc1cccnc1)C(=O)N[C@@H](CO)C(=O)N[C@@H](Cc1ccc(NC(=O)[C@@H]2CC(=O)NC(=O)N2)cc1)C(=O)N[C@H](Cc1ccc(NC(N)=O)cc1)C(=O)N[C@@H](CC(C)C)C(=O)N[C@@H](CCCCNC(C)C)C(=O)N1CCC[C@H]1C(=O)N[C@H](C)C(N)=O [Degarelix, D-Alaninamide, N-acetyl-3-(2-naphthalenyl)-D-alanyl-4-chloro-D-phenylaanyl-3-(3-pyridinyl)-D-alanyl-L-seryl-4-[[[(4S)-hexahydro-2,6-dioxo-4-pyrimidinyl]carbonyl]amino]-L-phenylalanyl-4-[(aminocarbonyl)amino]-D-phenylaanyl-L-leucyl-N6-(1-methylethyl)-L-lysyl-L-prolyl-] (Ac-[d2Nal][dPhe(4-Cl)][d3Pal]S[Phe(4-NH2)](Dihydroorotyl(S))[dPhe(4-NHCONH2)]L[Lys(iPr)]P[dA]-NH2)",testosterone surge or clinical flare,[1],does not cause testosterone surge or clinical flare
same,Optical Density Time = 240 min,[2]; [7],0.00
same,Optical Density Time = 240 min,[2]; [8],0.10
same,Optical Density Time = 240 min,[2]; [9],0.09
same,Optical Density Time = 240 min,[2]; [10],0.06
same,Optical Density Time = 240 min,[2]; [11],0.08
same,Optical Density Time = 240 min,[2]; [12],0.03
same,Optical Density Time = 240 min,[2]; [13],0.10
same,Optical Density Time = 240 min,[2]; [14],0.86
same,Optical Density Time = 240 min,[2]; [15],0.07
same,Optical Density Time = 240 min,[2]; [16],0.05
same,Optical Density Time = 240 min,[2]; [17],0.13
same,Optical Density Time = 240 min,[2]; [18],0.10
same,Optical Density Time = 240 min,[2]; [19],0.07
same,Optical Density Time = 240 min,[2]; [20],0.08
same,Viscosity @ 500 Time = 240 min,[3]; [7],1.9 mPas * s
same,Viscosity @ 500 Time = 240 min,[3]; [8],2.3 mPas * s
same,Viscosity @ 500 Time = 240 min,[3]; [9],1.9 mPas * s
same,Viscosity @ 500 Time = 240 min,[3]; [10],1.7 mPas * s
same,Viscosity @ 500 Time = 240 min,[3]; [11],1.9 mPas * s
same,Viscosity @ 500 Time = 240 min,[3]; [12],1.8 mPas * s
same,Viscosity @ 500 Time = 240 min,[3]; [13],2.0 mPas * s
same,Viscosity @ 500 Time = 240 min,[3]; [14],7.2 mPas * s
same,Viscosity @ 500 Time = 240 min,[3]; [15],2.1 mPas * s
same,Viscosity @ 500 Time = 240 min,[3]; [16],1.7 mPas * s
same,Viscosity @ 500 Time = 240 min,[3]; [17],2.1 mPas * s
same,Viscosity @ 500 Time = 240 min,[3]; [18],1.9 mPas * s
same,Viscosity @ 500 Time = 240 min,[3]; [19],2.0 mPas * s
same,Viscosity @ 500 Time = 240 min,[3]; [20],2.1 mPas * s
same,sustained release from the depot,[4],sustained release of the active over months
Polysorbate 20 [Tween 20],optical density versus control,[5],reduced the optical density to a level below the control
same,in-vitro release profiles,[6],not altered
